Here are results for 1 compound from patent US20250320190A1, “Novel Inhibitors of Leucine Carboxyl Methyltransferase-1 (LCMT-1) and Methods of Use Thereof” (Temple University-Of The Commonwealth System of Higher …, priority 2024, published 2025).

For series [1], the system named is MCF7 cells. As to the kind of experiment: Annexin V assay. The class given is cell-based, human. The conditions noted are these: 5-20 μM, 48 hours. As to the method: (§1) MCF7, MDA-MB-231 and Rosi cells were treated with LB-100 and Compound 2 at 5-20 μM concentrations. After 48 hours, cells were lifted with Accutase and washed twice with PBS (pH 7.4) with 10% FBS. Cells were resuspended in annexin V binding buffer (10 mM HEPES (pH 7.4), 140 mM NaCl and 2.5 mM CaCl2)) and labeled with FITC-anti-Annexin V and 7-AAD (Biolegend, FITC Annexin V Apoptosis Detection Kit with 7-AAD, catalog #640922). Cell surface annexin V expression was assessed with flow cytometry.

The subject of series [2] is Rosi cells. The series can be described thus: Annexin V assay. Format: cell-based, human. As to conditions: 5-20 μM, 48 hours. As to the method:
as §1

The test system of series [3] is MDA-MB-231 cells. The series can be described thus: Annexin V assay. Format: cell-based, human. As to conditions: 5-20 μM, 48 hours. As to the method:
as §1

The nature of series [4]: Liver microsomal stability. Format: in vitro ADME. The source says: There is no cause for concern at this stage since there are multiple strategies and reagents for enhancing aqueous solubility for animal in vivo studies (Savjani, K. T., A. K. Gajjar and J. K. Savjani, 2012, ISRN Pharm 2012: 195727.). […] While target tissue exposure is dependent on free, unbound fractions in the plasma, plasma protein binding can protect compounds from hepatic metabolism. Thus, in vivo metabolism and excretion are often determined by a balance between these two properties. In vivo half-life is a complicated property impacted upon by multiple factors and is difficult to predict. […] While these numbers are somewhat low for a drug candidate, they are acceptable for proof of concept tool molecules which can be given multiple times per day and at higher doses to saturate metabolism.
In general terms: Microsomes from liver hold many membrane-bound enzymes, among them those of drug oxidation.

Series [5] deals with UM-SCC-12 cells. The series can be described thus: Western blots (pMLKL, ACSL4) with and without irradiation. As to conditions: LCMT-li alone. The class given is cell-based, human. As to the method: (§2) To better understand cellular outcomes associated with combining LCMT-li with radiotherapy (Adjemian, S. et al., 2020, Cell Death Dis 11(11): 1003), SCC-15, SCC-25, UM-SCC-12, UM-SCC-14a and UM-SCC-49 cells were treated with LCMT-li, radiotherapy or both as described for Annexin V assays. UM-SCC-69 cells were not used for immunoblots because insufficient numbers of cells survived irradiation to obtain sufficient lysates. After 24 hours, cells were lysed in radioimmunoprecipitation assay buffer containing protease inhibitors (Boster Bio, Pleasanton, California, catalog #AR1182-1) and phosphatase inhibitors (Santa Cruz Biotechnology catalog #sc-45044 and #sc-45045). Protein concentrations were measured with a bicinchoninic acid assay (G-Biosciences, Saint Louis, Missouri). Fifty micrograms of each lysate were used for bis-tris polyacrylamide gel electrophoresis. Resolved lysates were transferred to nitrocellulose membranes. Membranes were blocked with TBS with 5% bovine serum albumin before incubation with primary antibodies.
(§3) The anti-phospho-mixed lineage kinase domain like pseudokinase (pMLKL) antibody was obtained from R&D Systems (Minneapolis, Minnesota, catalog #MAB9187-100, 1:1,000 dilution). Antibodies obtained from Proteintech (Rosemont, Illinois) included anti-MLKL (catalog #66675-1-Ig, 1:5,000 dilution) and anti-β-actin (catalog #66009-1-Ig, 1:50,000 dilution). The anti-long-chain-fatty-acid-Coenzyme A ligase 4 (ACSL4) antibody was obtained from Santa Cruz Biotechnology (Dallas, Texas, catalog #sc-365230, 1:1,000 dilution). Appropriate IR-dye secondary antibodies obtained from Jackson ImmunoResearch Laboratories (West Grove, Pennsylvania) were used (Alexa Fluor® 790-conjugated anti-mouse (catalog #115-655-146, 1:50,000 dilution), Alexa Fluor® 680-conjugated anti-mouse (catalog #115-625-146, 1:50,000 dilution), and Alexa Fluor® 680-conjugated anti-rabbit (catalog #115-625-144, 1:50,000 dilution). Band densities were normalized to β-actin, the endogenous control. Twelve replicates were used for statistical analyses.
A general note: In western blotting, separated proteins are transferred to a membrane and probed.

The test system of the next series is SCC-15 cells. The description is as above. The class given is cell-based, human. As to conditions: alone or with irradiation. As to the method:
as §2, §3

The test system of the next series is SCC-25 cells. The description is as above. Format: cell-based, human. As to conditions: alone and in combination with irradiation. As to the method: as §2, §3
The next series deals with Jurkat cells. As to the kind of experiment: Cytotoxicity assay (Ghost Dye 710 flow cytometry). Format: cell-based. The conditions noted are these: Homo sapiens, 48 hours. As to the method:
(§4) Jurkat and THP-1 cells were seeded in 6-well plates at a density of 2.5×10^5 cells/mL. After 24 hours LCMT-li was added at various concentrations. After 48 hours, cells were pelleted and washed twice with ice-cold phosphate-buffered saline (PBS). Cells were stained with Ghost Dye™ 710 (Cytek®, Bethesda, Maryland) viability dye, 0.1 μL/mL in PBS on ice in the dark for 30 minutes. Cells were pelleted and washed twice with ice-cold PBS with 10% FBS. Cells were pelleted and fixed with 4% formaldehyde in PBS on ice for 15 minutes. Cells were pelleted and resuspended in PBS with 5% bovine serum albumin (BSA). Cells were analyzed with a Becton-Dickinson FACSymphony™ flow cytometer with at least 3 replicates; 3×10^4 cells were analyzed with each replicate for statistical significance.
(§5) Statistical analyses were performed with GraphPad Prism software (version 10.4.1). Effective concentrations that inhibited 50% of cells (EC50, log agonist versus response) were estimated with nonlinear fit curves. Absorbance values for cytotoxity assays and relative densities for Western blot assays were compared using Kruskal-Wallis analyses of variance with Dunn's correction for multiple comparisons. For flow cytometric analyses, two-way analyses of variance with Tukey's correction for multiple comparisons were used.

A further series concerns THP-1 cells. The series can be described thus: Cytotoxicity assay (Ghost Dye 710 flow cytometry). Format: cell-based. The conditions noted are these: Homo sapiens, 48 hours. As to the method:
as §4, §5
In general terms: In flow cytometry, cells or beads pass a laser one at a time.

The test system of series [6] is MCF7 cells. As to the kind of experiment: Cytotoxicity assay (CellTiter 96 AQeous). Format: cell-based. The conditions noted are these: Homo sapiens, 48 hours. As to the method: (§6) MCF7, MDA-MB-231, 501-MEL, Rosi, A549, SCC-15, SCC-25, UM-SCC-12, UM-SCC-14a, UM-SCC-49 and UM-SCC69 cells were seeded in 96-well tissue culture plates (Corning, New York) at a density of 2.5×10^3 cells/well. After 24 hours, the media were changed to media with LCMT-li (ChemSpace, Monmouth Junction, New Jersey) at various concentrations (0.78-200 μM). Control cells were given fresh media. After 48 hours cell viability was assessed using CellTiter 96® AQeous Non-Radioactive Cell Proliferation Assays (Promega Corporation, Madison Wisconsin). Plates were read after 4 hours with a GloMax® Discover plate reader (Promega Corporation, Madison Wisconsin). The cytotoxicity assays were performed at least twice, each time with eight replicates per condition.
as §5

Series [7] relates to UM-SCC-12 cells. As to the kind of experiment: Cytotoxicity assay (CellTiter 96 AQeous). The class given is cell-based. The conditions noted are these: Homo sapiens, 48 hours. As to the method:
as §6, §5

The subject of series [8] is Rosi cells. As to the kind of experiment: Cytotoxicity assay (CellTiter 96 AQeous). The class given is cell-based. As to conditions: Homo sapiens, 48 hours. As to the method: as §6, §5
For a further series, the system named is UM-SCC-49 cells. As to the kind of experiment: Cytotoxicity assay (CellTiter 96 AQeous). The class given is cell-based. The conditions noted are these: Homo sapiens, 48 hours. As to the method:
as §6, §5

Series [9] concerns MDA-MB-231 cells. As to the kind of experiment: Cytotoxicity assay (CellTiter 96 AQeous). The class given is cell-based. As to conditions: Homo sapiens, 48 hours. As to the method:
as §6, §5

Molecules are shown by their SMILES. pEC50: −log10 of the molar value. Read-outs that look alike come from different tables or passages of the source.

By pEC50 is commonly meant −log10 of the EC50, conventionally taken in molar units. Read a high pEC50 as a small EC50. With `COC(=O)c1c(NC(=O)c2ccccc2C)sc(C(=O)Nc2cccc(C)c2)c1C` [Compound 2, methyl 4-methyl-2-[(2-methylbenzoyl)amino]-5-[[(3-methylphenyl)amino]carbonyl]-3-thiophenecarboxylate], the results for the “apoptosis (cell surface annexin V expression)” value in the series on MCF7 cells [1], in the series with Rosi cells [2] and with MDA-MB-231 cells [3] were “decreased cell surface annexin V”, “did not induce apoptosis” and “increased cell surface annexin V expression”, respectively. In addition, the half-life was determined as 31.1 min in series [4] (human liver microsomes, read-out: Liver Microsomal Stability (t1/2) Human) and 17.3 min in [4] (mouse liver microsomes, read-out: Liver Microsomal Stability (t1/2) Mouse). Further, the “necroptosis (pMLKL) and ferroptosis (ACSL4)” value in the series on UM-SCC-12 cells [5] was “increased necroptosis and ferroptosis”; in the series on SCC-15 cells it was “did not induce necroptosis or ferroptosis”. For the same compound, the “necroptosis (pMLKL expression)” value in the series with SCC-25 cells is “increased necroptosis”. The pEC50 in the series with Jurkat cells is 3.65; in the series with THP-1 cells, 4.98; in the series with MCF7 cells [6], 5.65; with UM-SCC-12 cells [7], 3.68; in the series on Rosi cells [8], 5.50; in the series on UM-SCC-49 cells, 5.31. The compound also gave a pEC50 with MDA-MB-231 cells [9] of 5.41.
